Activity calls are given as the source filed them.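 How the source made its calls: active means fitted curve drops below -35% activity at a concentration within twice the top valid tested dose; inconclusive means no clear call, values can overlap the other calls; inactive means signal rising instead of falling, among other cases.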

The first experiment is described as follows: ATP-based viability loss in HepG2 cells – cell-based, CellTiter-Glo luminescence, cherry-pick, set 3, cytotoxicity control, dose response (AID 720589). The conditions noted are these: HepG2 viability, ATP luminescence (CellTiter-Glo), 72 h; at 0.011 µM; active compounds read low; 0% = untreated, negative = ATP loss. (In ATP-based viability assays light output follows the ATP content of the culture.)
Consider `CC(=O)N1CCCC(c2cc(C(=O)Nc3ccccc3)no2)C1` (stereo not drawn), for which the max activity was 15.4% (inactive). In the case of `Cc1cc(C(=O)NNC(=O)c2ccc(S(=O)(=O)N(C)C)cc2)c(C)o1`, the max activity is 20% (inactive). Still for that read-out and setting: with `Cc1ccsc1C(=O)OCC(=O)NCCC1=CCCCC1` the figure was -13% (inactive); with `COc1ccc(C=NNc2nc3ccccc3s2)cc1`, -25.7% (inactive).

As for `N/C(Cc1nc(-c2ccc(F)cc2)cs1)=N\O`, the max activity was 20.4% (inactive). Same read-out and setting: in the case of `COC(=O)C[C@@H]1CC[C@@H]2[C@H](COc3ccc(NC(=O)c4cc(F)cc(F)c4)cc3C(=O)N2C)O1` it was -46.8% (inactive); in that of `COc1ccccc1-c1cn(CC[C@H]2CC[C@@H](NC(=O)C3CCCC3)[C@@H](CO)O2)nn1`, 18.9% (inactive). The same measure, in the same setting: with `N#Cc1cccc(-c2ccc(C3[C@@H]4CN(C(=O)Cc5ccncc5)C[C@H]3N4)cc2)c1` (stereo partly drawn) the figure was 21% (inactive).

The same experiment, now with this note: HepG2 viability, ATP luminescence (CellTiter-Glo), 72 h; at 0.035 µM; active compounds read low.
On to `O=C1NC2C(=CC(O)C(O)C2O)c2cc3c(cc21)OCO3` (stereo not drawn), for which the max activity is -17.9% (inactive).

The same experiment, now with this note: HepG2 viability, ATP luminescence (CellTiter-Glo), 72 h; at 0.035 µM; active compounds read low; 0% = untreated, negative = ATP loss.
As for `COCCCNc1ccn2nc(-c3ccccc3)cc2n1`, the max activity is -48% (inactive). Same read-out and setting: with `Nc1ncn([C@@H]2O[C@H](CO)[C@@H](O)[C@H]2O)c(=O)n1` the figure was 16% (inactive); with `O=C(O)CN1C(=O)/C(=C\c2ccccc2OCc2ccc(Cl)cc2Cl)SC1=S`, -18.9% (inactive); with `N#CC1C=Cc2c(ccc3ccccc23)N1C(=O)c1ccccc1` (stereo not drawn), -32.3% (inactive). Same read-out and setting: with `C[C@@H]1CN([C@H](C)CO)S(=O)(=O)c2ccc(C#Cc3ccncc3)cc2O[C@@H]1CN(C)C(=O)Nc1ccc2c(c1)OCO2` the figure was -31.9% (inactive); with `COc1ccc(S(=O)(=O)N2CC[C@@H]3[C@@H](CO)Nc4ccc(-c5ccc(C#N)cc5)cc4[C@@H]32)cc1`, -30.2% (inactive).

As to `COc1ccc(/C=C2\SC(=O)N(CCCC(=O)Nc3cc(Cl)ccc3C(=O)O)C2=O)cc1`, the max activity is -25.6% (inactive).

The experiment is the same for the next values; noted with them: HepG2 viability, ATP luminescence (CellTiter-Glo), 72 h; at 0.1 µM; active compounds read low; 0% = untreated, negative = ATP loss.
In the case of `Cc1noc(C)c1C(=O)Nc1sccc1C(N)=O`, the max activity is -22.6% (inactive). Same read-out and setting: in the case of `Cc1ccc(S(=O)(=O)N(C)C[C@H]2Oc3c(cccc3N(C)C)C(=O)N([C@@H](C)CO)C[C@@H]2C)cc1` it was -28.2% (inactive); in that of `Cc1ccsc1C(=O)OCC(=O)c1cc(C)n(C)c1C`, 9.16% (inactive). Same read-out and setting: in the case of `Cc1cc(C)cc(OCC(=O)OCC(=O)Nc2cc(S(=O)(=O)N3CCOCC3)ccc2C)c1` it was -15.3% (inactive); in that of `O=C(NCCc1ccccc1)c1ccccc1NC(=O)C1CCCO1` (stereo not drawn), -10.9% (inactive). On the same count and under the same terms, with `Cc1c(Cc2ccc3c(c2)OCO3)sc(NC(=O)C(C)(C)C)c1C#N` the figure was -26.7% (inactive).

Regarding `COCCOC(=O)N1C(=O)[C@@]2(c3cc(C#CCC(C(=O)OC)C(=O)OC)ccc31)[C@H](c1ccccc1OCCO)N1[C@H](c3ccccc3)[C@H](c3ccccc3)OC(=O)[C@H]1[C@@H]2C(=O)N1CCN(c2ncccn2)CC1`, the max activity is -30.6% (inactive). For `CCC(C)Cn1c(O)cc2nn(-c3nc4ccccc4s3)c(=O)c-2c1C` (stereo not drawn), the max activity is -32.2% (inactive). The same measure, in the same setting: in the case of `O=C(NC(=O)c1ccccc1)Nc1ccccc1` it was -38.9% (inactive); in that of `COC(=O)C[C@@H]1CC[C@@H]2[C@H](COc3ccc(NC(=O)Nc4cccc(C#N)c4)cc3C(=O)N2C)O1`, 28.5% (inactive).

The same experiment, now with this note: HepG2 viability, ATP luminescence (CellTiter-Glo), 72 h; at 0.3 µM; active compounds read low; 0% = untreated, negative = ATP loss.
Turning to `CCc1c(C(=O)NN2C(=O)C3CCCCC3C2=O)csc1C` (stereo not drawn), the max activity is -31.9% (inactive). The same measure, in the same setting: in the case of `OCCN1CCN(C(=S)c2ccc(-c3ccccc3)cc2)CC1` it was -28.5% (inactive); in that of `C[C@@H]1CCCCO[C@@H](CN(C)C(=O)Cc2ccccc2)[C@@H](C)CN([C@@H](C)CO)C(=O)c2cc(NS(=O)(=O)c3ccc(F)cc3)ccc2O1`, -23.7% (inactive). `COc1ccc2nc(-c3ccc(F)cc3)sc2c1`: the max activity is -47.1% (inactive).

Still in this experiment, the particulars now being: HepG2 viability, ATP luminescence (CellTiter-Glo), 72 h; at 0.35 µM; active compounds read low; 0% = untreated, negative = ATP loss.
Turning to `COC(=O)C[C@@H]1CC[C@H]2[C@H](COc3ccc(NC(=O)Nc4cc(C)cc(C)c4)cc3C(=O)N2C)O1`, the max activity is 15% (inactive).

The experiment is the same for the next values; noted with them: HepG2 viability, ATP luminescence (CellTiter-Glo), 72 h; at 0.9 µM; active compounds read low; 0% = untreated, negative = ATP loss.
As for `Brc1ccc(CSc2nnc(-c3ccco3)o2)cc1`, the max activity is -28.4% (inactive). As to `O=C(NCc1ccccn1)c1ccc(CNS(=O)(=O)c2cccc(Cl)c2)cc1`, the max activity is -24.4% (inactive). In the case of `C[C@@H]1CN([C@H](C)CO)C(=O)c2cc(NC(=O)CCCCCC(=O)Nc3ccccc3N)ccc2O[C@@H]1CN(C)Cc1ccc(Cl)c(Cl)c1`, the max activity was 13.5% (inactive).

Regarding `COc1ccc(/C=C2/SC(=S)N(CCCC(=O)Nc3ccccc3C(=O)O)C2=O)cc1`, the max activity was -31.4% (inactive). Consider `CCc1ccc2oc(C(=O)N3CCN(c4ccccc4OC)CC3)cc(=O)c2c1`, for which the max activity is -16.2% (inactive). As to `CCc1cnc(N2[C@H](C#N)[C@H](c3ccc(C#Cc4ccccc4F)cc3)[C@H]2CO)s1`, the max activity was 65.8% (inactive).

Still in this experiment, the particulars now being: HepG2 viability, ATP luminescence (CellTiter-Glo), 72 h; at 2.85 µM; active compounds read low; 0% = untreated, negative = ATP loss.
In the case of `Oc1c(Cl)cc(Cl)c(Cl)c1Cc1c(O)c(Cl)cc(Cl)c1Cl`, the max activity is -40.1% (inactive). With `COc1ccc(Nc2oc(COc3ccccc3OC)nc2C#N)cc1`, the max activity was -51% (inactive).

With `O=C(Sc1cccc2cccnc12)c1ccccc1Br`, the max activity is -31.3% (inactive).

As to `COCC(=O)Nc1ccc2c(c1)[C@@H]1C[C@@H](CC(=O)NCc3ccc(-c4ccccc4)cc3)O[C@@H](CO)[C@@H]1O2`, the max activity was -28% (inactive). Take `Cc1ccc2c(c1)C(=O)N1[C@H]3c4cc(Br)ccc4OC[C@@H]3[C@H](c3ccccc3)[C@]1(C)C(=O)N2`: the max activity is -19.3% (inactive). Still for that read-out and setting: in the case of `CCCc1nc2ccc(NC(=O)c3cccs3)cc2c(=O)n1Cc1ccccc1Cl` it was -32.5% (inactive).

The same experiment, now with this note: HepG2 viability, ATP luminescence (CellTiter-Glo), 72 h; at 8 µM; active compounds read low; 0% = untreated, negative = ATP loss.
Take `CCOc1ccc(/C=C2\CCc3ccccc3C2=O)cc1`: the max activity is -13.7% (inactive).

On to `O=C(Cc1nn[nH]n1)c1ccccc1O`, for which the max activity was -19.1% (inactive). On the same count and under the same terms, with `Nc1nc2cc3c(cc2cc1C(=O)NCCc1c[nH]c2ccccc12)OCO3` the figure was -32.5% (inactive); with `CCc1ccc(S(=O)(=O)c2ccc(-n3nc(C)cc3N)cc2)cc1`, 24% (inactive).

Regarding `CC(=O)c1ccc(N(C(=O)Cn2nnc3ccccc32)C(C(=O)NCc2ccccc2)c2ccccn2)cc1` (stereo not drawn), the max activity was -38% (inactive). As to `C[C@H](CO)N1C[C@H](C)[C@H](CN(C)Cc2ccc(C(F)(F)F)cc2)Oc2ccc(NC(=O)CCCCCC(=O)Nc3ccccc3N)cc2CC1=O`, the max activity was -23.5% (inactive). For `Nc1ccc2c(c1)OC1(CCCC1)O2`, the max activity is -32.8% (inactive).

Staying with this experiment, now noted: HepG2 viability, ATP luminescence (CellTiter-Glo), 72 h; at 21 µM; active compounds read low; 0% = untreated, negative = ATP loss.
As for `COc1ccc(CN(C)C[C@H]2Oc3ccc(NC(=O)CCCCCC(=O)Nc4ccccc4N)cc3CC(=O)N([C@H](C)CO)C[C@H]2C)cc1`, the max activity is -31.8% (inactive).

The experiment is the same for the next values; noted with them: HepG2 viability, ATP luminescence (CellTiter-Glo), 72 h; at 26 µM; active compounds read low.
For `O=C1NC(=S)NC(=O)C1=Cc1cccn1-c1ccc(O)cc1`, the max activity is -27.6% (inactive).

Staying with this experiment, now noted: HepG2 viability, ATP luminescence (CellTiter-Glo), 72 h; at 26 µM; active compounds read low; 0% = untreated, negative = ATP loss.
Regarding `COc1ccc(S(=O)(=O)N=Nc2c(O)[nH]c3ccccc23)cc1`, the max activity was -27.4% (inactive). Same read-out and setting: with `CC(=O)Oc1ccc(-c2ccc(C(=O)Nc3cccc(S(=O)(=O)N4CCOCC4)c3)cc2)cc1` the figure was -21.6% (inactive). For `C[C@@H]1CN([C@@H](C)CO)C(=O)Cc2cc(NC(=O)Cn3cnnn3)ccc2O[C@@H]1CN(C)Cc1ccc(Oc2ccccc2)cc1`, the max activity is 25% (inactive). For `CCOc1ccc(N=Nc2ccc(O)c3ncccc23)cc1`, the max activity is -26.7% (inactive). Still for that read-out and setting: with `O=C(/C=C/c1ccc(Cl)cc1Cl)N(Cc1ccc(Cl)cc1)C1CCS(=O)(=O)C1` (stereo not drawn) the figure was 14% (inactive); with `Cc1ccccc1S(=O)(=O)N1CC[C@@H]2[C@@H](CO)Nc3ccc(-c4ccc(C#N)cc4)cc3[C@@H]21`, -21.8% (inactive); with `COC(=O)COc1ccc(-c2nccc(-c3ccccn3)n2)cc1`, 18.7% (inactive). Same read-out and setting: in the case of `COc1ccc(CCC(C)NCC2CCCCC2)cc1` (stereo not drawn) it was -15.7% (inactive); in that of `CCCN(C)C[C@H]1Oc2ncc(-c3ccccc3)cc2C(=O)N([C@@H](C)CO)C[C@H]1C`, 18.2% (inactive); in that of `CC(C)(C)C(=O)Cn1ncc(Cl)c(Cl)c1=O`, -23.7% (inactive). Consider `COc1cccc(CN2CCC2(C)C(=O)Nc2cccc3cccnc23)c1F` (stereo not drawn), for which the max activity was -24% (inactive).

On to `Cc1ccc2nc(-c3ccccc3)nn2c1`, for which the max activity was -45.7% (inactive). On the same count and under the same terms, with `O=c1[nH]c(/C=C2\C=Nc3ccccc32)c(O)n1Cc1ccccc1F` the figure was -19.8% (inactive); with `Cc1c(N=Cc2cc(Br)cc(Br)c2O)cccc1C(=O)O`, -9.11% (inactive); with `Cc1ccc(N2C(=O)c3cccc4c(N)ccc(c34)C2=O)c2cccnc12`, -20.7% (inactive). On to `Cc1nn(-c2ccc(F)cc2)c2nc(N)c(C#N)c(-c3ccc(O)c(O)c3)c12`, for which the max activity was -39.7% (inactive).

The values above are taken from PubChem BioAssay AID720589 (Broad Institute, 2013).
